The values below come from PubChem BioAssay (NCI).

Assay in all cases: NCI anticancer screen, dose series, 48 h
Test [1] has as its system CCRF-CEM leukemia.
For test [2], the system named is HOP-92 NSCLC.
The subject of test [3] is K-562 leukemia.
The subject of test [4] is MALME-3M melanoma.
In test [5] the test system is MCF7 breast.
Test [6] concerns NCI-H23 lung.
Test [7] relates to NCI-H522 lung.
Test [8] has as its system RPMI-8226 leukemia.
Test [9] has as its system SF-268 CNS.
For test [10], the system named is SF-539 CNS.
The test system of test [11] is SW-620 colon.

Structures are written as SMILES. Several values for one entry are separate records, joined by “and”; a condition that tells them apart may be missing. Identical values can stand only once.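 96-well plates; 48 h exposure; 5 concentrations. Endpoints by linear interpolation between flanking doses. Not reached: highest tested concentration assigned. At the TGI there is no net growth.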

For the molecule `CC1=C(C)SC(=C2Sc3c(n(C)c(=O)[nH]c3=O)S2)S1`, the TGI in test [1], in test [2], in test [3], in [4], in test [5] and in test [6] was greater than 100 µM in each case. In addition, the TGI in test [7], in [8], in test [9], in test [10] and in test [11] was greater than 100 µM each time.

Turning to `O=C(NNC(=S)Nc1ccccc1)C12CC3CC(CC(C3)C1)C2`, the TGI in [1] is greater than 53.5 µM; in test [2] it was 95.8 µM; in test [3] it was greater than 81.6 µM; in test [4], greater than 100 µM; in test [5], greater than 100 µM; in [6] it was greater than 100 µM. Further, the TGI in test [7], in [8], in test [9], in test [10] and in [11] was greater than 100 µM throughout.

On to `COC(=O)/C=C\c1ccc2c(c1)CC1(C2)Cc2ccc(/C=C/C(=O)OC)cc2C1` (stereo unspecified), for which the TGI in test [1], in test [2], in test [3], in test [4], in [5] and in [6] was greater than 31.6 µM each time. Besides, the TGI in test [7] was greater than 31.6 µM; in test [8] it was greater than 31.6 µM; in test [9], greater than 100 µM; in [10], greater than 31.6 µM; in [11], greater than 100 µM.

In the case of `CC(=O)OCC1OC(n2c(C)c(N=Nc3ccc(C)cc3)c(C)c(C#N)c2=S)C(OC(C)=O)C(OC(C)=O)C1OC(C)=O` (stereo unspecified), the TGI in [1] is greater than 100 µM; in test [2], 34.2 µM; in test [3], greater than 100 µM; in [4] it was greater than 100 µM; in test [5], greater than 100 µM; in test [6] it was greater than 100 µM. Besides, the TGI in [8], in [9], in test [10] and in test [11] was greater than 100 µM in each case.

As to `Cc1ccc2c(c1)C(=O)/C(=C1/CCc3ccc(C)cc31)C2`, the TGI in test [1], in [2], in [3], in [4], in test [5] and in test [6] was greater than 100 µM in each case. The TGI in test [7], in test [8], in test [9], in test [10] and in test [11] was greater than 100 µM throughout.

Take `Cc1ccc(SCC(OCn2cnc3c(N)ncnc32)[C@H](C)F)cc1` (stereo partly specified): the TGI in test [1], in test [2], in test [4], in test [5], in test [6] and in test [7] was greater than 100 µM in each case. Besides, the TGI in [8], in test [9], in test [10] and in [11] was greater than 100 µM each time.

Regarding `O=C1O/C(=C\c2ccc(O)c(Br)c2)C(c2ccc(O)cc2)=C1Cl`, the TGI in [1] is 41.1 µM; in test [2], greater than 100 µM; in test [3], greater than 100 µM; in [4], greater than 100 µM; in test [5] it was 49.5 µM; in test [6], 61.6 µM. Besides, the TGI is 68.6 µM in test [7]; 34 µM in test [8]; 86.2 µM in test [9]; greater than 100 µM in test [10]; greater than 100 µM in test [11].

Consider `CCC1(O)CC(OC2CC(N(C)C)C(OC3CC(O)C(OC4OC(C)C(=O)C=C4N)C(C)O3)C(C)O2)c2c(O)c3c(c(O)c2C1C(=O)OC)C(=O)c1cccc(O)c1C3=O` (stereo unspecified), for which the TGI is 0.0761 µM and 0.0126 µM in test [1]; 1.67 µM in test [2]; 0.125 µM and 0.0234 µM in test [3]; 0.0947 µM in test [4]; 1.4 µM in test [5]; 0.036 µM in [6]. For the same molecule, the TGI in test [7] was determined as 0.203 µM; in test [8], 0.0858 µM; in [9] it was 0.299 µM; in [10], 0.236 µM; in test [11], 0.0845 µM.

For the molecule `O=C1c2ccccc2C(=O)c2c(OCC3CO3)ccc(OCC3CO3)c21` (stereo unspecified), the TGI turned out to be 0.393 µM in test [1]; 10.7 µM in [2]; 5.96 µM in test [3]; 20 µM in test [4]; 2.59 µM in [5]; 13 µM in test [7]. The TGI amounted to 19.8 µM in test [8], 2.29 µM in test [9], 9.02 µM in [10] and 5.68 µM in test [11].

Consider `O=S(=O)(O)c1cc(S(=O)(=O)O)c2c(N=Nc3cccc4ccccc34)c(O)ccc2c1`, for which the TGI in [1], in test [2], in test [3], in test [4], in test [5] and in test [6] was greater than 100 µM each time. Also, the TGI in [7], in [8], in test [9], in test [10] and in test [11] was greater than 100 µM in each case.

`COC(=O)CCc1ccc2c(c1)CCC2`: the TGI in test [1], in test [2], in [4], in test [5], in test [6] and in test [7] was greater than 100 µM each time. The TGI in test [8], in test [9], in test [10] and in [11] was greater than 100 µM throughout.

In the case of `C=CCNC1=C2C[C@@H](C)C[C@@H](OC)[C@H](OC(=O)CN(C)C)[C@H](C)/C=C(\C)[C@@H](OC(N)=O)[C@H](OC)/C=C\C=C(/C)C(=O)NC(=CC1=O)C2=O`, the TGI was greater than 59.3 µM in test [1]; 23.3 µM in [2]; greater than 42.1 µM in [3]; 19 µM in test [4]; 14.3 µM in test [5]; 19.8 µM in [6]. The TGI in test [7] was 18.3 µM; in [8], greater than 48.2 µM; in test [9] it was 30.5 µM; in [10], 16.2 µM; in test [11], 26.9 µM.

`CC1(C)C(O)c2ccccc2OC1N1CCN(C2Oc3ccccc3C(O)C2(C)C)CC1` (stereo unspecified): the TGI in test [1], in [2], in test [3], in test [4], in test [5] and in [6] was greater than 100 µM each time. Further, the TGI in [7], in test [8], in [9], in test [10] and in test [11] was greater than 100 µM in each case.

Regarding `CCCCCCCCCCCCCCCCOP(=O)(O)OP(=O)(O)OCC1OC(n2ccc(N)nc2=O)CC1O` (stereo unspecified), the TGI in [1], in test [2], in test [3], in test [4], in test [5] and in test [6] was greater than 100 µM each time. Further, the TGI in test [7], in [8], in [9], in test [10] and in [11] was greater than 100 µM throughout.

With `CC(=O)N1NC(c2ccccc2)=CC(=O)/C1=C/C(=O)c1ccccc1`, the TGI in [1], in test [2], in [3], in test [4], in test [5] and in test [6] was greater than 100 µM each time. Moreover, the TGI in test [7] is 57.2 µM; in test [8] it was greater than 100 µM; in [9], 99.3 µM; in test [10] it was greater than 100 µM.

Turning to `O=c1c2cccnc2[nH]c2ccc3scnc3c12`, the TGI in test [1], in test [2], in test [4], in test [5], in test [6] and in test [7] was greater than 10 µM in each case. For the same molecule, the TGI in [8], in test [9], in [10] and in test [11] was greater than 10 µM throughout.

With `O=C(O)C(Cc1cccs1)NC(=O)C(F)(F)F` (stereo unspecified), the TGI in test [1], in [2], in test [3], in test [4], in test [5] and in test [6] was greater than 100 µM each time. In addition, the TGI in test [7], in test [8], in test [9], in [10] and in test [11] was greater than 100 µM throughout.

On to `O=C1CCC(=O)N1CNc1ccc2c(c1)Sc1ccccc1O2`, for which the TGI in [1] was greater than 100 µM; in test [2], 56.7 µM; in test [3], greater than 100 µM; in [4] it was greater than 100 µM; in test [5] it was greater than 100 µM; in test [6] it was greater than 100 µM. For the same molecule, the TGI in test [7] was 53.6 µM; in [8], greater than 100 µM; in [9] it was greater than 100 µM; in [10], 34.7 µM; in test [11] it was greater than 100 µM.

As to `c1ccc(COCC23CCN(Cc4ccccc4)C(CC(OCc4ccccc4)C2)S3)cc1` (stereo unspecified), the TGI was greater than 100 µM in test [1]; 87.4 µM in test [2]; greater than 100 µM in test [3]; greater than 100 µM in test [4]; 59.9 µM in test [5]; 95.9 µM in test [6]. Besides, the TGI in [7] is 72.7 µM; in [8], greater than 100 µM; in test [9], greater than 100 µM; in [10], greater than 100 µM; in test [11] it was greater than 100 µM.

With `CN(CCc1ccc(Br)cc1)CCN1CCCCC1`, the TGI is 36.6 µM in test [1]; 82.8 µM in test [2]; 41.5 µM in test [3]; 48.7 µM in [4]; 54.4 µM in [5]; greater than 100 µM in test [6]. In addition, the TGI is 51.7 µM in test [7]; greater than 100 µM in test [8]; greater than 100 µM in test [9]; 64.8 µM in test [10]; greater than 100 µM in test [11].

On to `CN(C)CCOc1cc2c(c3ccccc13)-c1ccccc1C2=O`, for which the TGI in [1] worked out at 10.8 µM; in [2] it was 4.25 µM; in test [3], 4.7 µM; in test [4] it was 5.15 µM; in [5], 5.6 µM; in [6], 5.24 µM. The TGI is 3.08 µM in test [7]; 4.27 µM in test [8]; 3.24 µM in test [9]; 3.27 µM in test [10]; 3.87 µM in test [11].

With `Cc1cc(C)c2c(=O)cc(-c3ccc(Cl)cc3)[nH]c2n1`, the TGI in test [1] is greater than 100 µM; in test [2], greater than 100 µM; in [3], greater than 71.4 µM; in [4], greater than 59.3 µM; in test [5] it was greater than 100 µM; in test [6] it was greater than 100 µM. The TGI in test [7], in [8], in [9], in [10] and in test [11] was greater than 100 µM each time.

For `CCc1cc(-c2nsc(=O)o2)c(S(=O)(=O)CC)s1`, the TGI in [1] was greater than 100 µM; in [2] it was greater than 100 µM; in test [3], greater than 100 µM; in test [5], greater than 100 µM; in test [6] it was greater than 100 µM; in test [7], 57.2 µM. The TGI in test [8], in [9], in [10] and in test [11] was greater than 100 µM each time.

As to `COC(=O)[C@@H]1O[C@]12C(CO[Si](C)(C)C(C)(C)C)OC(n1ccc(=O)[nH]c1=O)C2O[Si](C)(C)C(C)(C)C` (stereo partly specified), the TGI in test [1] was greater than 100 µM; in test [2], 88.1 µM; in test [3], greater than 100 µM; in [5], 37.2 µM; in test [6] it was 54.5 µM; in [7] it was 45.4 µM. Moreover, the TGI in test [8] was greater than 100 µM; in test [9], greater than 100 µM; in test [10], 38 µM; in [11] it was greater than 100 µM.

For the molecule `CCOC(=O)CSc1nc(-c2ccc(OC)cc2)c(C#N)c(=O)[nH]1`, the TGI in test [1], in [2], in [3], in test [5], in test [6] and in test [7] was greater than 100 µM in each case. Moreover, the TGI in test [8], in [9], in test [10] and in test [11] was greater than 100 µM each time.
